# Assay results as given in patent US11147272B2, “Pyridone compounds and agricultural and horticultural fungicides comprising the same as active ingredients” (MITSUI CHEMICALS AGRO, INC., priority 2017, dated 2021).
# What was measured:
# Magnaporthe grisea = assay: whole plant or invertebrate; format: in vivo; settings: Blast on rice; class of control value
# Puccinia recondita = assay: Test Example E: Brown rust on wheat; format: in vivo; settings: Brown rust on wheat; class of control value
# Botrytis cinerea = assay: Test Example B: Gray mold on tomato; settings: Gray mold on tomato; class of control value
# Phytophthora infestans = assay: whole plant or invertebrate; format: in vivo; settings: Late blight on tomato; class of control value
# Plasmopara viticola = assay: Test Example G: Downy mildew on vine; settings: Downy mildew on vine (Neomuscat); 250 ppm spray, 2.5 ml/pot; assessed 7 to 10 days after inoculation
# Alternaia brassicicola = assay: Test Example C: Alternaria sooty spot on cabbage; format: in vivo; settings: Alternaria sooty spot on cabbage; class of control value
# Text: Seeds of a test plant (cabbage variety: Shikidori) were planted and cultivated until the cotyledons extended.
# <Control Value> Control value=100{1−(n/3)}
# [1] = tested on: Colletotrichum orbiculare; assay: Test Example H: Anthracnose on cucumber; settings: Anthracnose on cucumber (Sagami Hanjiro); 250 ppm spray, 2.5 ml/pot; assessed 6 to 10 days after inoculation
# [2] = tested on: Blumeria graminis f. sp. hordei; assay: Test Example D: Powdery mildew on barley; settings: Powdery mildew on barley; class of control value
compound,measurement,setting,value
Cc1ccc(=O)n(C)c1-c1c(F)cccc1F [compound 3],Test A control value class,Magnaporthe grisea,L (50% or less control value)
same,Test E control value class,Puccinia recondita,L (50% or less control value)
same,Test B control value class,Botrytis cinerea,L (50% or less control value)
same,Test F control value class,Phytophthora infestans,L (50% or less control value)
same,Test G control value class,Plasmopara viticola,L (50% or less control value)
same,Test C control value class,Alternaia brassicicola,H (more than 50% control value)
same,Test H control value class,[1],L (50% or less control value)
same,Test D control value class,[2],L (50% or less control value)
Cc1cc(Cl)c(=O)n(C)c1-c1c(F)cccc1F [compound 4],Test A control value class,Magnaporthe grisea,H (more than 50% control value)
same,Test E control value class,Puccinia recondita,L (50% or less control value)
same,Test B control value class,Botrytis cinerea,L (50% or less control value)
same,Test F control value class,Phytophthora infestans,H (more than 50% control value)
same,Test G control value class,Plasmopara viticola,L (50% or less control value)
same,Test C control value class,Alternaia brassicicola,H (more than 50% control value)
same,Test H control value class,[1],L (50% or less control value)
same,Test D control value class,[2],L (50% or less control value)
CCn1c(-c2c(F)cccc2F)c(C(C)C)ccc1=O [compound 5],Test A control value class,Magnaporthe grisea,H (more than 50% control value)
same,Test E control value class,Puccinia recondita,H (more than 50% control value)
same,Test B control value class,Botrytis cinerea,H (more than 50% control value)
same,Test F control value class,Phytophthora infestans,L (50% or less control value)
same,Test G control value class,Plasmopara viticola,L (50% or less control value)
same,Test C control value class,Alternaia brassicicola,H (more than 50% control value)
same,Test H control value class,[1],H (more than 50% control value)
same,Test D control value class,[2],H (more than 50% control value)
CCn1c(-c2c(F)cccc2F)c(C(C)C)cc(Cl)c1=O [compound 6],Test A control value class,Magnaporthe grisea,H (more than 50% control value)
same,Test E control value class,Puccinia recondita,H (more than 50% control value)
same,Test B control value class,Botrytis cinerea,H (more than 50% control value)
same,Test F control value class,Phytophthora infestans,L (50% or less control value)
same,Test G control value class,Plasmopara viticola,L (50% or less control value)
same,Test C control value class,Alternaia brassicicola,H (more than 50% control value)
same,Test H control value class,[1],H (more than 50% control value)
same,Test D control value class,[2],H (more than 50% control value)
CCn1c(-c2c(F)cc(F)cc2F)c(C(C)C)cc(Br)c1=O [compound 9],Test A control value class,Magnaporthe grisea,H (more than 50% control value)
same,Test E control value class,Puccinia recondita,H (more than 50% control value)
same,Test B control value class,Botrytis cinerea,H (more than 50% control value)
same,Test F control value class,Phytophthora infestans,L (50% or less control value)
same,Test G control value class,Plasmopara viticola,H (more than 50% control value)
same,Test C control value class,Alternaia brassicicola,H (more than 50% control value)
same,Test H control value class,[1],H (more than 50% control value)
same,Test D control value class,[2],H (more than 50% control value)
CCn1c(-c2c(F)cc(OC)cc2F)c(C(C)C)cc(Br)c1=O [compound 12],Test A control value class,Magnaporthe grisea,H (more than 50% control value)
same,Test E control value class,Puccinia recondita,H (more than 50% control value)
same,Test B control value class,Botrytis cinerea,H (more than 50% control value)
same,Test F control value class,Phytophthora infestans,L (50% or less control value)
same,Test G control value class,Plasmopara viticola,H (more than 50% control value)
same,Test C control value class,Alternaia brassicicola,H (more than 50% control value)
same,Test H control value class,[1],H (more than 50% control value)
same,Test D control value class,[2],H (more than 50% control value)
CC(C)c1ccc(=O)n(C)c1-c1c(F)cc(F)cc1F [compound 13],Test A control value class,Magnaporthe grisea,H (more than 50% control value)
same,Test E control value class,Puccinia recondita,L (50% or less control value)
same,Test B control value class,Botrytis cinerea,H (more than 50% control value)
same,Test F control value class,Phytophthora infestans,L (50% or less control value)
same,Test G control value class,Plasmopara viticola,L (50% or less control value)
same,Test C control value class,Alternaia brassicicola,L (50% or less control value)
same,Test H control value class,[1],L (50% or less control value)
same,Test D control value class,[2],H (more than 50% control value)
COc1cc(F)c(-c2c(C(C)C)ccc(=O)n2C)c(F)c1 [compound 14],Test A control value class,Magnaporthe grisea,H (more than 50% control value)
same,Test E control value class,Puccinia recondita,H (more than 50% control value)
same,Test B control value class,Botrytis cinerea,H (more than 50% control value)
same,Test F control value class,Phytophthora infestans,H (more than 50% control value)
same,Test G control value class,Plasmopara viticola,L (50% or less control value)
same,Test C control value class,Alternaia brassicicola,H (more than 50% control value)
same,Test H control value class,[1],H (more than 50% control value)
same,Test D control value class,[2],H (more than 50% control value)
CC(C)c1cc(Cl)c(=O)n(C)c1-c1c(F)cc(F)cc1F [compound 15],Test A control value class,Magnaporthe grisea,H (more than 50% control value)
same,Test E control value class,Puccinia recondita,H (more than 50% control value)
same,Test B control value class,Botrytis cinerea,H (more than 50% control value)
same,Test F control value class,Phytophthora infestans,L (50% or less control value)
same,Test G control value class,Plasmopara viticola,L (50% or less control value)
same,Test C control value class,Alternaia brassicicola,H (more than 50% control value)
same,Test H control value class,[1],H (more than 50% control value)
same,Test D control value class,[2],H (more than 50% control value)
COc1cc(F)c(-c2c(C(C)C)cc(Cl)c(=O)n2C)c(F)c1 [compound 16],Test A control value class,Magnaporthe grisea,H (more than 50% control value)
same,Test E control value class,Puccinia recondita,H (more than 50% control value)
same,Test B control value class,Botrytis cinerea,H (more than 50% control value)
same,Test F control value class,Phytophthora infestans,L (50% or less control value)
same,Test G control value class,Plasmopara viticola,H (more than 50% control value)
same,Test C control value class,Alternaia brassicicola,H (more than 50% control value)
same,Test H control value class,[1],H (more than 50% control value)
same,Test D control value class,[2],H (more than 50% control value)
CCn1c(-c2c(F)cccc2F)c(C(C)O)cc(Cl)c1=O (stereo not shown) [compound 17],Test A control value class,Magnaporthe grisea,L (50% or less control value)
same,Test E control value class,Puccinia recondita,H (more than 50% control value)
same,Test B control value class,Botrytis cinerea,H (more than 50% control value)
same,Test F control value class,Phytophthora infestans,H (more than 50% control value)
same,Test G control value class,Plasmopara viticola,H (more than 50% control value)
same,Test C control value class,Alternaia brassicicola,H (more than 50% control value)
same,Test H control value class,[1],H (more than 50% control value)
same,Test D control value class,[2],L (50% or less control value)
CCn1c(-c2c(F)cccc2F)c(C(C)OC)cc(Cl)c1=O (stereo not shown) [compound 18],Test A control value class,Magnaporthe grisea,H (more than 50% control value)
same,Test E control value class,Puccinia recondita,H (more than 50% control value)
same,Test B control value class,Botrytis cinerea,H (more than 50% control value)
same,Test F control value class,Phytophthora infestans,H (more than 50% control value)
same,Test G control value class,Plasmopara viticola,H (more than 50% control value)
same,Test C control value class,Alternaia brassicicola,H (more than 50% control value)
same,Test H control value class,[1],H (more than 50% control value)
same,Test D control value class,[2],H (more than 50% control value)
CCOC(C)c1cc(Cl)c(=O)n(CC)c1-c1c(F)cccc1F (stereo not shown) [compound 19],Test A control value class,Magnaporthe grisea,H (more than 50% control value)
same,Test E control value class,Puccinia recondita,H (more than 50% control value)
same,Test B control value class,Botrytis cinerea,H (more than 50% control value)
same,Test F control value class,Phytophthora infestans,L (50% or less control value)
same,Test G control value class,Plasmopara viticola,H (more than 50% control value)
same,Test C control value class,Alternaia brassicicola,H (more than 50% control value)
same,Test H control value class,[1],H (more than 50% control value)
same,Test D control value class,[2],H (more than 50% control value)
CCn1c(-c2c(F)cccc2F)c(C(C)=O)cc(Cl)c1=O [compound 22],Test A control value class,Magnaporthe grisea,L (50% or less control value)
same,Test E control value class,Puccinia recondita,H (more than 50% control value)
same,Test B control value class,Botrytis cinerea,H (more than 50% control value)
same,Test F control value class,Phytophthora infestans,L (50% or less control value)
same,Test G control value class,Plasmopara viticola,H (more than 50% control value)
same,Test C control value class,Alternaia brassicicola,H (more than 50% control value)
same,Test H control value class,[1],H (more than 50% control value)
same,Test D control value class,[2],L (50% or less control value)
CCn1c(-c2c(F)cccc2F)c(C(C)(C)O)cc(Cl)c1=O [compound 23],Test A control value class,Magnaporthe grisea,H (more than 50% control value)
same,Test E control value class,Puccinia recondita,H (more than 50% control value)
same,Test B control value class,Botrytis cinerea,H (more than 50% control value)
same,Test F control value class,Phytophthora infestans,L (50% or less control value)
same,Test G control value class,Plasmopara viticola,L (50% or less control value)
same,Test C control value class,Alternaia brassicicola,H (more than 50% control value)
same,Test H control value class,[1],H (more than 50% control value)
same,Test D control value class,[2],H (more than 50% control value)
CC=C(C)c1cc(Cl)c(=O)n(CC)c1-c1c(F)cccc1F [compound 28],Test A control value class,Magnaporthe grisea,H (more than 50% control value)
same,Test E control value class,Puccinia recondita,H (more than 50% control value)
same,Test B control value class,Botrytis cinerea,H (more than 50% control value)
same,Test F control value class,Phytophthora infestans,L (50% or less control value)
same,Test G control value class,Plasmopara viticola,H (more than 50% control value)
same,Test C control value class,Alternaia brassicicola,H (more than 50% control value)
same,Test H control value class,[1],H (more than 50% control value)
same,Test D control value class,[2],H (more than 50% control value)
CCC(C)c1ccc(=O)n(CC)c1-c1c(F)cc(F)cc1F (stereo not shown) [compound 31],Test A control value class,Magnaporthe grisea,H (more than 50% control value)
same,Test E control value class,Puccinia recondita,H (more than 50% control value)
same,Test B control value class,Botrytis cinerea,H (more than 50% control value)
same,Test F control value class,Phytophthora infestans,L (50% or less control value)
same,Test G control value class,Plasmopara viticola,H (more than 50% control value)
same,Test C control value class,Alternaia brassicicola,H (more than 50% control value)
same,Test H control value class,[1],H (more than 50% control value)
same,Test D control value class,[2],H (more than 50% control value)
